Entries after “also recorded” stand apart in the source; their conditions may differ. Read-outs that look alike come from different tables or passages of the source. *1 amine or outer side, *2 acyl side, *3 side chain or, on linkers, in order; H or OH if unused. Where a SMILES comes first, the peptide text is derived from it. Bridges are numbered along the chain shown (N, C = ends). [ ]: non-standard residue; d: D form. The star is where a group is joined. Leu(3R-OH,Nα-propionyl) = CCC(=O)N[C@H](C(=O)*)[C@H](O)C(C)C; X1 = CC(C)[C@@H](O[*:3])[C@H](N[*:1])C(=O)[*:2]; NMeT = CN[C@H](C(=O)O)[C@@H](C)O; dPhLac = O=C(O)[C@H](O)Cc1ccccc1; NMeA = CN[C@@H](C)C(=O)O; NMeDha = C=C(NC)C(=O)O
Columns and labels:
A1AR [1] = conditions: overexpressed in CHO or 1321N1 astrocytoma cells; FR 100 nM; cited from earlier work
A1AR [2] = biological target: T1, A1AR (Homo sapiens, UniProt P30542); experiment: Intracellular calcium mobilization, HEK293 cells expressing recombinant A1AR (CCPA); format: cell-based
T1 construct: expressed in transfected cells
T1 sequence (P30542 1-326): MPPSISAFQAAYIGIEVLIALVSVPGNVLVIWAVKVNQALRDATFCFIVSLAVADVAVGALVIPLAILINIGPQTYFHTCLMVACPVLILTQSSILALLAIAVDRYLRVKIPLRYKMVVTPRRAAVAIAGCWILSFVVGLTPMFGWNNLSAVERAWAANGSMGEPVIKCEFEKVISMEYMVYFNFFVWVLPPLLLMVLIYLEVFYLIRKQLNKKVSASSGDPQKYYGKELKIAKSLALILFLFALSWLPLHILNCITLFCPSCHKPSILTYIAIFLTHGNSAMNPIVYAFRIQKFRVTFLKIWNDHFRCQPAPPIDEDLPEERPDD

[3] = tested on: M3 acetylcholine receptor; set-up: method as in PMID 26954502; conditions: FR at both 100 and 300 nM; cited from earlier work
β2-adrenergic receptor = β2-adrenergic receptor (Homo sapiens, UniProt P07550); experiment: Intracellular calcium mobilization, T24 bladder cancer cells, endogenous β2-adrenergic receptor; format: cell-based
P2Y12 receptor = tested on: P2Y12 receptor; set-up: method as in PMID 26954502; conditions: overexpressed in CHO or 1321N1 astrocytoma cells; FR 100 nM; cited from earlier work
A1AR [4] = conditions: FR 100 nM; small but significant; cited from earlier work
A2B adenosine receptor = tested on: A2B adenosine receptor; set-up: method as in PMID 26954502; conditions: CHO cells; FR 300 nM; cited from earlier work
A2BAR [5] = biological target: T2, A2BAR (Homo sapiens, UniProt P29275); experiment: Intracellular calcium mobilization, T24 bladder cancer cells, native A2BAR (NECA); format: cell-based
T2 sequence (P29275 1-332): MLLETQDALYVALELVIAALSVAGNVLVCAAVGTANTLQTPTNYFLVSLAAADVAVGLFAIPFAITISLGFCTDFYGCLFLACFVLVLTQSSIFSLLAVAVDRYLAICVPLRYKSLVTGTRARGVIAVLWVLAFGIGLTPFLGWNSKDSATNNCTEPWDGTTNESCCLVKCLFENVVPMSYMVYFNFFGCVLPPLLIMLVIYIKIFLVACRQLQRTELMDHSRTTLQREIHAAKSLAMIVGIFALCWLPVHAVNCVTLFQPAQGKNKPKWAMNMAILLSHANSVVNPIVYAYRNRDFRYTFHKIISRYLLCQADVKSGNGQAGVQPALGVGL

P2Y1 receptor [6] = tested on: P2Y1 receptor; set-up: method as in PMID 26954502; conditions: FR at 100 and 300 nM; cited from earlier work
[7] = tested on: M2 muscarinic acetylcholine receptor; conditions: overexpressed in CHO or 1321N1 astrocytoma cells; FR 100 nM; cited from earlier work
A2AAR = biological target: T3, A2AAR (Homo sapiens, UniProt P29274); experiment: cAMP accumulation, HEK293 cells, A2AAR-mediated stimulation (CGS21680); format: cell-based
T3 construct: host or cells: HEK293
Procedure: (§1) HEK293, T24 bladder cancer and MDA-MB-231 breast cell lines were cultured in DMEM medium containing 10% fetal bovine serum, 100 units/ml penicillin, 100 μg/ml streptomycin, and 2 μmol/ml glutamine. For the assay of 3′,5′-cyclic adenosine monophosphate (cAMP), cells were plated in 96-well (4 × 10^4 cells/well) clear plates in 100 μl of medium overnight. Cell culture medium was then replaced with 80 µl HBSS buffer containing 20 mM HEPES, phosphodiesterase inhibitor rolipram (10 μM), and 3 units/ml adenosine deaminase (Worthington Biochemical, Lakewood, NJ, USA) for 30 min followed by agonist addition to the mixture, which was then incubated for 20 min. The treatment of YM or FR was 20 min before agonist addition.

A1AR [8] = conditions: CHO cells; FR 300 nM; cited from earlier work
P2Y1R [9] = biological target: T4, P2Y1R (Homo sapiens, UniProt P47900); experiment: Intracellular calcium mobilization, HEK293 cells, native P2Y1R (MRS2365); format: cell-based
A1AR [10] = biological target: T1, A1AR; experiment: cAMP accumulation, HEK293 cells, A1AR-mediated inhibition of forskolin-stimulated cAMP (CCPA); format: cell-based
Procedure: as §1

A1AR [11] = conditions: FR 100 nM; cited from earlier work
[12] = tested on: M3 acetylcholine receptor; set-up: method as in PMID 26954502; conditions: FR at 100 and 300 nM; cited from earlier work
P2Y1R [13] = biological target: T4, P2Y1R; experiment: Intracellular calcium mobilization, T24 bladder cancer cells, native P2Y1R (MRS2365); format: cell-based; conditions: YM 300 nM, FR 300 nM, PTX 200 ng/ml overnight
P2Y1 receptor [14] = tested on: P2Y1 receptor; set-up: method as in PMID 26954502; conditions: FR at both 100 and 300 nM; cited from earlier work
A2BAR [15] = biological target: T2, A2BAR; set-up: method as in PMID 24853985; conditions: T24 cells; cited from earlier work
HMC-1 cells = conditions: cited from earlier work
[16] = tested on: human erythroleukemia cells; conditions: cited from earlier work

T4 sequence (P47900 whole entry): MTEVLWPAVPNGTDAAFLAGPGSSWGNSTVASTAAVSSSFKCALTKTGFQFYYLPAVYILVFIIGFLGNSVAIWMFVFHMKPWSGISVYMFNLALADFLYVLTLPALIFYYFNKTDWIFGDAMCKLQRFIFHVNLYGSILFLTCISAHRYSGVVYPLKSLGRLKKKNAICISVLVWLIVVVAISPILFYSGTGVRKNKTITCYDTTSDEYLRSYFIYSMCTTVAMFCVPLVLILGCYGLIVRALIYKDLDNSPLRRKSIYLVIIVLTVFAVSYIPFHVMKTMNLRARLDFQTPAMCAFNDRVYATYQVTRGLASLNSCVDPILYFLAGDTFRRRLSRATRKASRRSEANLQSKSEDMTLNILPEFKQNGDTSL
T3 sequence (P29274 whole entry): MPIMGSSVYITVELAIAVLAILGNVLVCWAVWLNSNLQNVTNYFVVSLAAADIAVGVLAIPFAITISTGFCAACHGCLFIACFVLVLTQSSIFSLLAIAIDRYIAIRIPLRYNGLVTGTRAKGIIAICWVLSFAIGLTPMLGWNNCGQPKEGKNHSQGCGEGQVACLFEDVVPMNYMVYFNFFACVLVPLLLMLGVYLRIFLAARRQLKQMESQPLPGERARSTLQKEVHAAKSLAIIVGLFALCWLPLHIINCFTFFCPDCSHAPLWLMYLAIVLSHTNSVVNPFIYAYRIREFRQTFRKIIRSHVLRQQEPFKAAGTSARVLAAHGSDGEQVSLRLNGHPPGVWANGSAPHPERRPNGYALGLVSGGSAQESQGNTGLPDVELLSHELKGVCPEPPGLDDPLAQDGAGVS

Compound: C=C1C(=O)N[C@@H](C)C(=O)N(C)[C@@H](C)C(=O)N[C@@H]([C@H](OC(=O)[C@@H](NC(=O)CC)[C@H](O)C(C)C)C(C)C)C(=O)N(C)[C@@H]([C@@H](C)OC)C(=O)O[C@H](C(C)C)[C@H](NC(C)=O)C(=O)O[C@H](Cc2ccccc2)C(=O)N1C [FR, FR900359] (Ac-[X1][dPhLac][NMeDha]A[NMeA][X1](Leu(3R-OH,Nα-propionyl))[NMeT](Me); ester 1-C)
- Effect on Giβγ-mediated calcium mobilization, or IP1 accumulation, upon A1AR activation (A1AR [1]): nearly complete inhibition
- Effect on A1AR (CCPA)-mediated calcium mobilization (A1AR [2]; HEK293 cells overexpressing A1AR, Gq/11 siRNA 250 nM, PTX 200 ng/ml overnight, FR, YM 20 min before agonist): inhibited; also recorded: YM and FR – fully sensitive (2)
- IC50 (A1AR [2]; HEK293 cells, overexpressed A1AR, agonist CCPA 1 µM, read-out: IC50 for inhibition of A1AR-mediated calcium mobilization): 8.66 ± 3.23 nM
- Effect on ERK1/2 activity triggered by the M3 acetylcholine receptor [3]: only partially inhibited
- Effect on isoproterenol-induced calcium mobilization (β2-adrenergic receptor) (β2-adrenergic receptor; T24 cells, FR 300 nM, PMA 1 µM): diminished
- Effect on formoterol-induced calcium mobilization (β2-adrenergic receptor) (β2-adrenergic receptor; T24 cells, FR 300 nM, YM 1 µM, PTX 200 ng/ml, CTX 500 ng/ml, PMA 1 µM): diminished
- Effect on Giβγ-mediated calcium mobilization, or IP1 accumulation, upon P2Y12R activation (P2Y12 receptor): nearly complete inhibition
- Inhibition of A1AR-mediated ERK1/2 activity (A1AR [4]): < 30%
- Effect on A2BAR-Gαs-mediated cAMP accumulation (A2B adenosine receptor): no effect
- Effect on native A2BAR (NECA)-triggered calcium mobilization (A2BAR [5]; T24 cells, YM 300 nM, FR 300 nM, PTX 200 ng/ml, CTX 500 ng/ml overnight, other inhibitors 20 min before NECA): FR and YM insensitive (4); Gαq/11 siRNA insensitive (4)
- Effect on calcium response triggered by the P2Y1 receptor (P2Y1 receptor [6]): completely inhibited
- Effect on Giβγ-mediated calcium mobilization, or IP1 accumulation, upon M2 receptor activation [7]: nearly complete inhibition
- Effect on A2AAR-mediated stimulation of cAMP accumulation (A2AAR): did not affect
- Effect on A1AR-Gαi-mediated inhibition of forskolin-stimulated cAMP accumulation (A1AR [8]): no effect
- Effect on P2Y1R (MRS2365)-mediated calcium mobilization (P2Y1R [9]; Gq/11 siRNA 250 nM, PTX 200 ng/ml overnight, FR, YM 20 min before agonist): inhibited; also recorded: fully sensitive
- IC50 (P2Y1R [9]; agonist MRS2365 1 µM, read-out: IC50 to inhibit P2Y1R-mediated calcium mobilization): 13.2 ± 3.2 nM
- Effect on A1AR-mediated inhibition of cAMP accumulation (A1AR [10]): did not affect
- Effect on A1AR-mediated Akt1/2/3 phosphorylation (A1AR [11]): no effect
- Effect on calcium response triggered by the M3 acetylcholine receptor [12]: completely inhibited
- Effect on native P2Y1R (MRS2365)-triggered calcium mobilization (P2Y1R [13]): completely inhibited
- Effect on ERK1/2 activity triggered by the P2Y1 receptor (P2Y1 receptor [14]): only partially inhibited

Compound: CCCn1c(=O)[nH]c2nc(-c3ccc(S(=O)(=O)N4CCN(c5ccc(Cl)cc5)CC4)cc3)[nH]c2c1=O [PSB603]
- Effect on NECA-induced Ca2+ increase (A2BAR [15]): completely blocked
- Effect on native A2BAR (NECA)-triggered calcium mobilization (A2BAR [5]): completely inhibited

Compound: Cholera toxin [CTX]
- Effect on formoterol-induced calcium mobilization (β2-adrenergic receptor) (β2-adrenergic receptor): effect larger than it was on the NECA-induced Ca^2+ response; also recorded: CTX sensitive (6)
- Effect on native A2BAR (NECA)-triggered calcium mobilization (A2BAR [5]): CTX sensitive (5), Variable, depending on cell type^b, c
- Sensitivity of NECA-induced Ca2+ increase to toxin (HMC-1 cells): ^b NECA-induced Ca^2+ increase in HMC-1 cells was insensitive to CTX and PTX, Feoktistov et al., 1995 [30]
- Sensitivity of NECA-induced Ca2+ increase to toxin [16]: ^c NECA-induced Ca^2+ increase in human erythroleukemia cells was sensitive to CTX, Feoktistov et al., 1994 [31]

From publication PMC12222587, “A2B adenosine receptor-triggered intracellular calcium mobilization: Cell type-dependent involvement of Gi, Gq, Gs proteins and protein kinase C” (Purinergic Signalling, 2025)
